Patent publication US8063071B2 (GlaxoSmithKline, LLC, priority 2007, dated 2011)
Counter-ions that a name gives are not always drawn.

Assays:
[1] = target: T1, Recombinant human IKKβ (residues 1-737) (Homo sapiens, UniProt O14920); experiment: IKK2 assay (TR-FRET); assay type: biochemical; conditions: ATP 1 μM final, read-out: pIC50 against IKK2 (converted)
T1 construct: Recombinant human IKKβ (residues 1-737); GST (C); made in house
T1 sequence (O14920 1-737): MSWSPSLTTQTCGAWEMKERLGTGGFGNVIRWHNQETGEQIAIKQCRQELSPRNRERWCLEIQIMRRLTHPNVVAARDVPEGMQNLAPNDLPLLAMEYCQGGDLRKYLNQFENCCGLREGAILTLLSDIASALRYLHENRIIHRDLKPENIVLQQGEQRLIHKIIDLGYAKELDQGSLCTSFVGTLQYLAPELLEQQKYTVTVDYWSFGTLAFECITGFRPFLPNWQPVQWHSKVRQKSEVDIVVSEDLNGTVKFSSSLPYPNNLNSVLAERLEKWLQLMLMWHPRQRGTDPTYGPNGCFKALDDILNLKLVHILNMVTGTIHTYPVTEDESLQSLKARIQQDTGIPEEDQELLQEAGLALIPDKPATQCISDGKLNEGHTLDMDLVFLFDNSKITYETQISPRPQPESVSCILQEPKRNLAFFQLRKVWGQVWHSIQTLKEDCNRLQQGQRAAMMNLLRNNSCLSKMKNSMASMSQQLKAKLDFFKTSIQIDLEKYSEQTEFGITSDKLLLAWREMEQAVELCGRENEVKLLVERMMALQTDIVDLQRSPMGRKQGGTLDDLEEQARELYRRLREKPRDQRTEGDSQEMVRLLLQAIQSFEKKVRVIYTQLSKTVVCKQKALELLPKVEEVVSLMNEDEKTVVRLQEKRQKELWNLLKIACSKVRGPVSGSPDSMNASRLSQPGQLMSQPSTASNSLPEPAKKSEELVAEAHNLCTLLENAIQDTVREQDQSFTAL
Method in brief: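 TR-FRET readout (665 nm over 620 nm Eu reference) of GST-IB Ser32/36 phosphorylation after 60 min detection. Reaction: 1 μM ATP, 25 nM substrate, 0.5-5 nM GST-fused IKKβ 1-737 from baculovirus, pH 7.4 HEPES buffer, 1.7% DMSO, 15 min room temperature, EDTA-terminated.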

[2] = system: human monocyte stimulated cytokine production (TNF-α); experiment: Monocyte assay (LPS-stimulated TNF-α production); assay type: cell-based; conditions: for inhibition at 0.3 µM: read-out: inhibition at 300 nM in the monocyte assay; for IC50: 24 h, 200 ng/mL LPS, TNF-α by ELISA
Method in brief: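 TNF-α release was measured by ELISA after 24 hrs at 37 C. Cells were stimulated with 200 ng/mL E. coli LPS, with compound added 30 minutes beforehand (0.1% DMSO vehicle). Cells were Ficoll/MACS-isolated CD14+ human monocytes adhered at 1×10^6 cells/mL, and viability was checked by trypan blue.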

| IC50 [1] [µM] | IC50 [2] [nM] | Compound | inhibition at 0.3 µM [2] [%] |
| --- | --- | --- | --- |
| ≤ 10 | – | CCS(=O)(=O)N1CCC(c2c[nH]c3c(C(N)=O)cc(-c4cncc(CN5CCCC5C)c4)cc23)CC1 (centres unmarked) [Example 179, 3-[1-(ethylsulfonyl)-4-piperidinyl]-5-{5-[(2-methyl-1-pyrrolidinyl)methyl]-3-pyridinyl}-1H-indole-7-carboxamide] | 0 to 60 |
| ≤ 10 | – | CCS(=O)(=O)N1CCC(c2c[nH]c3c(C(N)=O)cc(-c4cncc(CNCC(C)C)c4)cc23)CC1 [Example 180, 3-[1-(ethylsulfonyl)-4-piperidinyl]-5-(5-{[(2-methylpropyl)amino]methyl}-3-pyridinyl)-1H-indole-7-carboxamide] | 0 to 60 |
| ≤ 10 | – | CCS(=O)(=O)N1CCC(c2c[nH]c3c(C(N)=O)cc(-c4cncc(CNCC(C)(C)C)c4)cc23)CC1 [Example 181, 5-(5-{[(2,2-dimethylpropyl)amino]methyl}-3-pyridinyl)-3-[1-(ethylsulfonyl)-4-piperidinyl]-1H-indole-7-carboxamide] | 0 to 60 |
| ≤ 10 | ≤ 1500 | CCC(C)CNCc1ccc(-c2cc(C(N)=O)c3[nH]cc(C4CCN(S(=O)(=O)CC)CC4)c3c2)s1 (centres unmarked) [Example 182, 3-[1-(ethylsulfonyl)-4-piperidinyl]-5-(5-{[(2-methylbutyl)amino]methyl}-2-thienyl)-1H-indole-7-carboxamide] | – |
| ≤ 10 | – | CCCCCNCc1ccc(-c2cc(C(N)=O)c3[nH]cc(C4CCN(S(=O)(=O)CC)CC4)c3c2)s1 [Example 184, 3-[1-(ethylsulfonyl)-4-piperidinyl]-5-{5-[(pentylamino)methyl]-2-thienyl}-1H-indole-7-carboxamide] | 0 to 60 |
| ≤ 10 | – | CC[C@H](C)CNCc1ccc(-c2cc(C(N)=O)c3[nH]cc(C4CCN(S(=O)(=O)CC)CC4)c3c2)s1 [Example 185, 3-[1-(ethylsulfonyl)-4-piperidinyl]-5-[5-({[(2S)-2-methylbutyl]amino}methyl)-2-thienyl]-1H-indole-7-carboxamide] | 0 to 60 |
| ≤ 10 | – | CCCC(C)NCc1ccc(-c2cc(C(N)=O)c3[nH]cc(C4CCN(S(=O)(=O)CC)CC4)c3c2)s1 (centres unmarked) [Example 186, 3-[1-(ethylsulfonyl)-4-piperidinyl]-5-(5-{[(1-methylbutyl)amino]methyl}-2-thienyl)-1H-indole-7-carboxamide] | 0 to 60 |
| ≤ 10 | – | CCCCNCc1ccc(-c2cc(C(N)=O)c3[nH]cc(C4CCN(S(=O)(=O)CC)CC4)c3c2)s1 [Example 187, 5-{5-[(butylamino)methyl]-2-thienyl}-3-[1-(ethylsulfonyl)-4-piperidinyl]-1H-indole-7-carboxamide] | 0 to 60 |
| ≤ 10 | – | CCS(=O)(=O)N1CCC(c2c[nH]c3c(C(N)=O)cc(-c4ccc(CNCCOC)s4)cc23)CC1 [Example 188, 3-[1-(ethylsulfonyl)-4-piperidinyl]-5-[5-({[2-(methyloxy)ethyl]amino}methyl)-2-thienyl]-1H-indole-7-carboxamide] | 0 to 60 |
| ≤ 10 | – | CCS(=O)(=O)N1CCC(c2c[nH]c3c(C(N)=O)cc(-c4ccc(CNC5CCCC5)s4)cc23)CC1 [Example 189, 5-{5-[(cyclopentylamino)methyl]-2-thienyl}-3-[1-(ethylsulfonyl)-4-piperidinyl]-1H-indole-7-carboxamide] | 0 to 60 |
| ≤ 10 | – | CCS(=O)(=O)N1CCC(c2c[nH]c3c(C(N)=O)cc(-c4ccc(CNCCC(C)C)s4)cc23)CC1 [Example 190, 3-[1-(ethylsulfonyl)-4-piperidinyl]-5-(5-{[(3-methylbutyl)amino]methyl}-2-thienyl)-1H-indole-7-carboxamide] | 0 to 60 |
| ≤ 10 | ≤ 1500 | CCS(=O)(=O)N1CCC(c2c[nH]c3c(C(N)=O)cc(-c4cncc(CNC(C)C)c4)cc23)CC1 [Example 191, 3-[1-(ethylsulfonyl)-4-piperidinyl]-5-(5-{[(1-methylethyl)amino]methyl}-3-pyridinyl)-1H-indole-7-carboxamide] | – |
| ≤ 10 | > 1000 | CCC(CC)CNCc1ccc(-c2cc(C(N)=O)c3[nH]cc(C4CCN(S(=O)(=O)CC)CC4)c3c2)s1 [Example 192, 5-(5-{[(2-ethylbutyl)amino]methyl}-2-thienyl)-3-[1-(ethylsulfonyl)-4-piperidinyl]-1H-indole-7-carboxamide] | – |
| ≤ 10 | > 1000 | CCOCCCNCc1ccc(-c2cc(C(N)=O)c3[nH]cc(C4CCN(S(=O)(=O)CC)CC4)c3c2)s1 [Example 193, 5-[5-({[3-(ethyloxy)propyl]amino}methyl)-2-thienyl]-3-[1-(ethylsulfonyl)-4-piperidinyl]-1H-indole-7-carboxamide] | – |
| ≤ 10 | > 1000 | CCS(=O)(=O)N1CCC(c2c[nH]c3c(C(N)=O)cc(-c4ccc(CNCCCOC)s4)cc23)CC1 [Example 194, 3-[1-(ethylsulfonyl)-4-piperidinyl]-5-[5-({[3-(methyloxy)propyl]amino}methyl)-2-thienyl]-1H-indole-7-carboxamide] | – |
| ≤ 10 | – | CCS(=O)(=O)N1CCC(c2c[nH]c3c(C(N)=O)cc(-c4ccc(CNCC5CCCCC5)s4)cc23)CC1 [Example 195, 5-(5-{[(cyclohexylmethyl)amino]methyl}-2-thienyl)-3-[1-(ethylsulfonyl)-4-piperidinyl]-1H-indole-7-carboxamide] | 0 to 60 |
| ≤ 10 | > 1000 | CCS(=O)(=O)N1CCC(c2c[nH]c3c(C(N)=O)cc(-c4ccc(CNCCCOC(C)C)s4)cc23)CC1 [Example 196, 3-[1-(ethylsulfonyl)-4-piperidinyl]-5-{5-[({3-[(1-methylethyl)oxy]propyl}amino)methyl]-2-thienyl}-1H-indole-7-carboxamide] | – |
| ≤ 10 | > 1000 | CCOCCNCc1ccc(-c2cc(C(N)=O)c3[nH]cc(C4CCN(S(=O)(=O)CC)CC4)c3c2)s1 [Example 197, 5-[5-({[2-(ethyloxy)ethyl]amino}methyl)-2-thienyl]-3-[1-(ethylsulfonyl)-4-piperidinyl]-1H-indole-7-carboxamide] | – |
| ≤ 10 | > 1000 | CCS(=O)(=O)N1CCC(c2c[nH]c3c(C(N)=O)cc(-c4ccc(CN[C@@H](C)C(C)(C)C)s4)cc23)CC1 [Example 200, 3-[1-(ethylsulfonyl)-4-piperidinyl]-5-[5-({[(1S)-1,2,2-trimethylpropyl]amino}methyl)-2-thienyl]-1H-indole-7-carboxamide] | – |
| ≤ 10 | > 1000 | CCCCCCNCc1ccc(-c2cc(C(N)=O)c3[nH]cc(C4CCN(S(=O)(=O)CC)CC4)c3c2)s1 [Example 201, 3-[1-(ethylsulfonyl)-4-piperidinyl]-5-{5-[(hexylamino)methyl]-2-thienyl}-1H-indole-7-carboxamide] | – |
| ≤ 10 | > 1000 | CCS(=O)(=O)N1CCC(c2c[nH]c3c(C(N)=O)cc(-c4ccnc(N(C)C)c4)cc23)CC1 [Example 202, 5-[2-(dimethylamino)-4-pyridinyl]-3-[1-(ethylsulfonyl)-4-piperidinyl]-1H-indole-7-carboxamide trifluoroacetate] | – |
| ≤ 10 | > 1000 | CCS(=O)(=O)N1CCC(c2c[nH]c3c(C(N)=O)cc(-c4ccnc(N5CCCC5)c4)cc23)CC1 [Example 203, trifluoroacetate] | – |
| ≤ 10 | > 1000 | CCS(=O)(=O)N1CCC(c2c[nH]c3c(C(N)=O)cc(-c4ccnc(N5CCOCC5)c4)cc23)CC1 [Example 204, 3-[1-(ethylsulfonyl)-4-piperidinyl]-5-[2-(4-morpholinyl)-4-pyridinyl]-1H-indole-7-carboxamide trifluoroacetate] | – |
| ≤ 10 | > 1000 | CCS(=O)(=O)N1CCC(c2c[nH]c3c(C(N)=O)cc(-c4ccnc(NCC(C)C)c4)cc23)CC1 [Example 205, 3-[1-(ethylsulfonyl)-4-piperidinyl]-5-{2-[(2-methylpropyl)amino]-4-pyridinyl}-1H-indole-7-carboxamide trifluoroacetate] | – |

| Compound | IC50 [1] [µM] | IC50 [2] [nM] | inhibition at 0.3 µM [2] [%] |
| --- | --- | --- | --- |
| CCS(=O)(=O)N1CCC(c2c[nH]c3c(C(N)=O)cc(-c4cncc(CN(C)C)c4)cc23)CC1 [Example 178, 5-{5-[(dimethylamino)methyl]-3-pyridinyl}-3-[1-(ethylsulfonyl)-4-piperidinyl]-1H-indole-7-carboxamide] | ≤ 10 | – | 0 to 60 |
